Assay results taken from publication PMC4684281, “Antitumor Effects and Mechanism of Novel Emodin Rhamnoside Derivatives against Human Cancer Cells In Vitro” (PLoS ONE, 2015).
≈ marks a conversion by molar mass, not a printed value.

How the values were obtained:
A549 cells = experiment: MTT cell viability assay, A549; type: cell-based, Human; conditions: Homo sapiens, A549; MTT, 72 hours; read-out: IC50 values, A549
Method: (§1) The viability of cancer cells was evaluated by MTT assay. Briefly, cells were inoculated in 96-well culture plates at the density of 1×10^4/well with complete medium containing 10% fetal calf serum in a final volume of 0.2 mL. Cells were incubated at 37°C for at least 24 hours to allow optimal attachment. When the cells reached 60% confluence, they were treated with Cisplatin, HCPT and emodin rhamnopyranosides derivatives in various concentrations, and incubated in a humidity-controlled 5%CO2 incubator at 37°C for 72 hours. Medium were exchanged once every 24 hours. Cell control group and blank group were set up in the same manner, with each group having six parallel wells. Cell survival was assessed by directly adding 22 μL of 5mg/mL MTT to 0.2 mL medium. After three hours, the formazan precipitate was dissolved in 200μL isopropanol per well, and completely mixed under room temperature. Afterwards, the optical density of each well was detected at 570 nm wavelength by iMark microplate reader (Bio-rad,USA). This experiment was repeated at least three times.

HepG2 cells [1] = experiment: MTT cell viability assay, HepG2; type: cell-based, Human; conditions: Homo sapiens, HepG2; MTT, 72 hours; read-out: IC50 values, HepG2
Method: as §1

OVCAR-3 cells = experiment: MTT cell viability assay, OVCAR-3; type: cell-based, Human; conditions: Homo sapiens, OVCAR-3; MTT, 72 hours; read-out: IC50 values, OVCAR-3
Method: as §1

HeLa cells = experiment: MTT cell viability assay, HeLa; type: cell-based, Human; conditions: Homo sapiens, HeLa; MTT, 72 hours; read-out: IC50 values, HeLa
Method: as §1

MDCK cells = experiment: MTT cell viability assay, MDCK; type: cell-based, Canine; conditions: Canis lupus familiaris, 72 hours
Method: as §1

HepG2 cells [2] = experiment: Fluorescence microscopy assay (Hoechst 33342); type: cell-based, Human
Method: HepG2 cells were inoculated in duplicate at 3×10^5/well density in 6-well plate, and allowed to attach at 37°C for 24 hours. Afterwards, cells were treated with 10 μM HCPT, 25 μM emodin and specific concentration EM-d-Rha (0.1μM, 0.5μM, 2.5μM), respectively. Cell control group was set in the same way. […] Medium were exchanged as described previously. In the end, all medium were discarded and cells were digested with 2mL 0.25% Trypsin-EDTA solution at 37°C for 5 min. After cells were harvested, cells were washed with PBS twice followed by centrifuging at 300×g for 5 minutes. Finally, cells were re-suspended in 100μL cold PBS after the supernatant was discarded. Cells were cultured in the dark for 10 minutes at room temperature after adding 100μL 1mg/mL Hoechst 33342 staining solution. Cells were harvested again as described previously to discard the staining solution. Wash the harvested cells twice with PBS before applying to the clean glass slides. The morphological changes of cells nuclei were observed and photographed under the fluorescence microscope (Olympus, Japan) at 350 nm excitation wavelength. The experiment was repeated three times.

[3] = Solubility (structure-activity remark); type: physicochemical; conditions: one rhamnose introduced into emodin

SMILES	IC50 (A549 cells)	IC50 (HepG2 cells [1])	IC50 (OVCAR-3 cells)	IC50 (HeLa cells)	Solubility of derivative relative to emodin [3]	IC50 (MDCK cells)	Nuclear morphology, Hoechst 33342 (HepG2 cells [2]; HepG2, 25μM)	Nuclear morphology, Hoechst 33342 (HepG2 cells [2]; HepG2, 2.5μM, 48h)
COc1cc(C)cc2c1C(=O)c1c(OC)cc(O[C@@H]3O[C@@H](C)[C@H](O)[C@@H](OC(C)=O)[C@H]3OC(C)=O)cc1C2=O [S-9]	3.63 mg/L (≈ 6.87 µM)	4.43 mg/L (≈ 8.38 µM)	9.72 mg/L (≈ 18.4 µM)	4.93 mg/L (≈ 9.33 µM)	–	1.39 mg/L (≈ 2.63 µM)	–	–
Cc1cc(O)c2c(c1)C(=O)c1cc(O)cc(O)c1C2=O [S-1, 3-methyl-1,6,8-trihydroxyanthraquinone, reference compound]	19.5 mg/L (≈ 72.3 µM)	12.8 mg/L (≈ 47.3 µM)	25.8 mg/L (≈ 95.5 µM)	12.1 mg/L (≈ 44.9 µM)	–	5.81 mg/L (≈ 21.5 µM)	displayed apoptotic morphological changes	–
CC[C@@]1(O)C(=O)OCc2c1cc1n(c2=O)Cc2cc3cc(O)ccc3nc2-1 [HCPT]	–	–	–	–	–	–	–	typical apoptotic nuclear morphology
Cc1cc(O)c2c(c1)C(=O)c1cc(O[C@@H]3O[C@@H](C)[C@H](O)[C@@H](O)[C@H]3O)cc(O)c1C2=O [S-2]	> 20 mg/L	> 20 mg/L	> 20 mg/L	> 20 mg/L	–	> 20 mg/L	–	–

Further lines, with some results ahead:

IC50 (A549 cells)	IC50 (HepG2 cells [1])	IC50 (OVCAR-3 cells)	IC50 (HeLa cells)	Solubility of derivative relative to emodin [3]	SMILES	IC50 (MDCK cells)	Nuclear morphology, Hoechst 33342 (HepG2 cells [2]; HepG2, 25μM)	Nuclear morphology, Hoechst 33342 (HepG2 cells [2]; HepG2, 2.5μM, 48h)
9.27 mg/L (≈ 18.5 µM)	> 20 mg/L	> 20 mg/L	> 20 mg/L	–	CC(=O)O[C@@H]1[C@@H](O)[C@@H](OC(C)=O)[C@H](Oc2cc(O)c3c(c2)C(=O)c2cc(C)cc(O)c2C3=O)O[C@H]1C [S-4]	> 20 mg/L	–	–
> 20 mg/L	> 20 mg/L	> 20 mg/L	> 20 mg/L	improved	CC(=O)O[C@@H]1[C@@H](O)[C@H](C)O[C@@H](Oc2cc(O)c3c(c2)C(=O)c2cc(C)cc(O)c2C3=O)[C@@H]1OC(C)=O [S-3]	> 20 mg/L	–	–
3.16 mg/L (≈ 6.31 µM)	1.32 mg/L (≈ 2.64 µM)	> 20 mg/L	5.34 mg/L (≈ 10.7 µM)	–	CC(=O)O[C@@H]1[C@@H](OC(C)=O)[C@@H](O)[C@H](Oc2cc(O)c3c(c2)C(=O)c2cc(C)cc(O)c2C3=O)O[C@H]1C [S-5]	14.8 mg/L (≈ 29.6 µM)	–	–
2.25 mg/L (≈ 4.91 µM)	> 20 mg/L	> 20 mg/L	> 20 mg/L	–	CC(=O)O[C@@H]1[C@@H](O)[C@@H](O)[C@H](Oc2cc(O)c3c(c2)C(=O)c2cc(C)cc(O)c2C3=O)O[C@H]1C [S-6]	21.1 mg/L (≈ 46 µM)	–	–
